US20100179225A1, “POI Prevention” (CYTOKINE PHARMASCIENCES, INC., priority 2008, published 2010)

Experiments:
p38-MAPK = p38-MAPK phosphorylation in ME lysates after intestinal manipulation (immunoblot); assay type: in vivo, C57BL/6J mice; conditions: 5 mg/kg i.v. preoperative; 30 minutes after operation; compared to placebo group
Text: (§1) The small bowel of the animals was subjected to a standardized, surgical manipulation (IM) as described previously (Kalff J C, Schraut W H, Simmons R L et al. Surgical manipulation of the gut elicits an intestinal muscularis inflammatory response resulting in postsurgical ileus. Ann Surg 1998; 228:652-663; Wehner S, Schwarz N T, Hundsdoerfer R et al. Induction of IL-6 within the rodent intestinal muscularis after intestinal surgical stress. Surgery 2005; 137:436-446). In brief, after anesthesia a midline abdominal incision was made into the peritoneal cavity. The entire small bowel was eventuated and manipulated with standardized moderate intensity using two moist cotton applicators as described previously. After IM, the laparotomy was closed by one layer of continuous suture, except when probe sampling was conducted within 20 minutes after surgery. […]
(§2) p38-MAPK and JNK/SAPK phosphorylation were analyzed in C57BL/6J mice 15, 30 and 60 minutes after IM and in unoperated controls. […] Finally, the sonicated samples were centrifuged at 13.000×g for 10 minutes, and total protein concentration was determined with Pierce BCA protein assay (Perbio, Bonn, Germany). […]
(§3) After PAGE, proteins were blotted on Immobilon-P […] PVDF membranes. […] Chemiluminscence signals were detected with a LAS 4000 system (Fujifilm, Duesseldorf, Germany).

JNK/SAPK = JNK/SAPK phosphorylation in ME lysates after intestinal manipulation (immunoblot); assay type: in vivo, C57BL/6J mice; conditions: 5 mg/kg i.v. preoperative; after IM
Text: as §1, §2, §3

neutrophils in ME = assay: Neutrophil infiltration into rat ME (myeloperoxidase staining) after IM; assay type: in vivo; conditions: rats, 24 hours after IM (FIG. 10)
Method: Animals within examples referring to FIGS. 2-9 were treated 90 minutes before operation with 0 mg/kg (placebo group), or 5 mg/kg bodyweight CNI-1493. In further experiments in rats or mice 0.1, 1.0 or 10 mg/kg CPSI-2364 were administered 90 minutes before surgical procedure via oral route. Oral (p.o.) administration was performed via a gastric tube. CNI-1493 and CPSI-2364 were dissolved in 2.5% mannitol. Placebo and CNI-1493 or CPSI-2364 groups were subdivided in two further groups. One was sham operated (laparotomy without IM) while the other underwent laparotomy followed by IM.
Specimens for histochemical analysis were prepared 24 h after operation and performed on whole mounts of the distal jejunum, as described before in detail (n=5-7 each group) 9. In brief, jejunal segments were opened, immersed in chilled Krebs-Ringer buffer (KRB) and fixed in 100% ethanol for 10 minutes. After washing with KRB, mucosa and submucosa were stripped off and ME whole mounts were used for detection of myeloperoxidase (MPO) positive cells (neutrophils). […] MPO+-cells were counted under a microscope (TE-2000, Nikon, Duesseldorf, Germany) in 5 randomly chosen areas in each specimen.
Example 3 was repeated in rats and mice, i.e. the infiltration of neutrophils within the ME after preoperative p.o. application of the drug was analyzed (FIGS. 10 and 11). […]

[1] = tested on: apoptotic cells in graft muscularis; assay: Apoptosis within smooth muscle layer of grafts (TUNEL); assay type: in vivo, Lewis rats; conditions: 1 mg/kg
Method: Syngeneic orthotopic small intestinal transplantation was performed in Lewis rats as previously described (Schwarz N T, Nakao A, Nalesnik M A, Kalff J C, Murase N, Bauer A J. Protective effects of ex vivo graft radiation and tacrolimus on syngeneic transplanted rat small bowel motility. Surgery 2002; 131: 413-423). […] Then the graft vascular bed was perfused with chilled UW solution (University of Wisconcin) and the intestinal lumen was irrigated with 50 ml cold 0.9% NaCl solution containing […]. neomycin sulfate (Uro Nebacetin N, Nycomed, Germany). The graft was stored in cold UW solution during the preparation of the recipient. An end-to-side anastomosis between the graft aorta and the recipient infra-renal aorta, and between the graft vein and recipient vena cava, was performed. Approximately 80% of the recipient intestine was removed and enteric continuity was restored by proximal and distal end-to-end intestinal anastomoses. […]
Apoptotic cells within the smooth muscle layer of the grafts were detected 3 and 18 h after reperfusion by detection of DNA double strand breaks with a commercially available TUNEL kit (Roche, Mannheim, Germany) according to the manufactures instructions.

C/C(=N\N=C(N)N)c1cc(NC(=O)CCCCCCCCC(=O)Nc2cc(/C(C)=N/N=C(N)N)cc(/C(C)=N/N=C(N)N)c2)cc(/C(C)=N/N=C(N)N)c1.Cl.Cl.Cl.Cl [CNI-1493]
upregulation of p38-MAPK phosphorylation by IM (p38-MAPK): reduced near to control levels | JNK/SAPK phosphorylation (JNK/SAPK): not affected

C/C(=N\N=C(N)N)c1cc(NC(=O)CCCCCCCCC(=O)Nc2cc(/C(C)=N/N=C(N)N)cc(/C(C)=N/N=C(N)N)c2)cc(/C(C)=N/N=C(N)N)c1.CS(=O)(=O)O.CS(=O)(=O)O.CS(=O)(=O)O.CS(=O)(=O)O [CPSI-2364]
neutrophils in ME compared to the placebo IM group (neutrophils in ME; 0.1 mg/kg bodyweight p.o.): led to the described results | neutrophils in ME compared to the placebo IM group (neutrophils in ME; p.o. preoperative): significant reduction of neutrophils | number of apoptotic bodies in muscularis ([1]; 3 h after reperfusion): 21.0 | number of apoptotic bodies in muscularis ([1]; 18 h after reperfusion): 7.2
